“Also recorded” adds a separate entry of the source. Where two headings read alike, the source gives them in different places.
Tests used:
HeLa cells = test: Internalization of fluorescently labelled peptide, confocal microscopy of live cells; type: cell-based, human; details: 4 h; for Fluorescence signal from the peptide in confocal images: fluorescently labelled peptide 10 µM, Hoechst counterstain, 20x; for Entry into cells in confocal images: fluorescently labelled peptide 20 µM, Supplementary Figure S2
Method: 48 h prior to the addition of […], 20,000 HeLa cells were seeded on 8-well Nunc™ Lab-Tek™ (Thermo Scientific™, United States) chamber plates. Before the addition of the peptide solutions media was changed to 225 µl of fresh media. […] After 4 h incubation, the cells were washed with PBS and counterstained with Hoechst 33342. Confocal images were acquired from live cells with Zeiss LSM710 (Carl Zeiss AG, Germany). For detecting the fluorescent label from the peptide, 488 nm laser with […] was used, and for detecting nuclei 405 nm laser with 416–503 filter was used. The images were taken with 20x magnification.

U87 cells [1] = details: for 2-Way ANOVA, MTS assay, treatment group compared to untreated: Table S4 C; for Proliferation in MTS assay compared to the CPP Tat treated group: same concentration of Tat, statistically significant
Method: (§1) The cell proliferation was analyzed with the CellTiter 96® Aqueous Non-Radioactive Cell Proliferation Assay (MTS) (Promega Biotech AB, Sweden) according to the manufacturer’s instructions. For this, 10,000 U87 or CHO cells were seeded 1 day prior to the experiment on transparent 96-well plates. On the experiment day, media was replaced with 90 μl of fresh serum free media. Peptides in the concentration range from 0 to 32 µM were added to the cells. The cells were incubated with the peptides for 20 h or 46 h, following the addition of the reagent and further incubation to reach 24 h or 48 h timepoints. The absorbance of the formazan product was measured at 490 nm with Tecan Sunrise microplate absorbance reader (Tecan Group Ltd., Switzerland) and the percentage of viable cells was calculated using the GraphPad Prism software 5.0 (GraphPad Software, CA, United States).

U87, PC3, and HeLa cells [2] = test: Internalization of FAM-labelled peptides, fluorescence from cell lysate; type: cell-based, human; details: FAM-labelled peptide 10 µM, 2 h, serum free media, lysis 0.1% Triton X100; cannot distinguish internalized from membrane-attached peptide; Figure 1A
Method: U87 (human glioblastoma like cells) and HeLa (human cervical cancer) were maintained at 37°C and 5% CO2 in Dulbecco’s Modified Eagle’s Medium (DMEM) (Sigma, Germany). PC3 (human prostate cancer) and CHO cells were maintained in Ham´S F12 media and incubated at 37°C and 5% CO2. Cell media were supplemented with 0.1 mM non-essential amino acids, 1.0 mM sodium pyruvate, 10% fetal bovine serum (FBS) (Sigma, Germany), 100°U ml^−1 penicillin, and […] streptomycin (Invitrogen, Sweden). U87 cell dishes were treated with 0.1% gelatin solution prior to addition of cells and media. For assessing the internalization of the peptides from the cell lysate, 50,000 cells were seeded on a 24-well plate 1 day prior to the experiment. On the experiment day, cell media was changed to 450 µl of fresh serum free media followed by the addition of 50 µl of fluorescently labelled peptide solution. The peptide’s final concentration on the cells was 10 µM. The cells were incubated with the peptides for 2 h, following washes with PBS buffer and cell lysis with 100 µl of 0.1% Triton X100. The cell lysate was transferred to black 96-well plate and the fluorescence signal from the fluorescently labelled peptide was measured.

U87, PC3, and HeLa cells [3] = test: Percentage of fluorescent cells after peptide treatment, flow cytometry; type: cell-based, human; details: FAM-labelled peptide 10 µM, 2 h, serum free media, trypan blue quenching, Figure 1B; for Percentage of the fluorescent positive cells: threshold set with untreated cells
Method: U87 (human glioblastoma like cells) and HeLa (human cervical cancer) were maintained at 37°C and 5% CO2 in Dulbecco’s Modified Eagle’s Medium (DMEM) (Sigma, Germany). PC3 (human prostate cancer) and CHO cells were maintained in Ham´S F12 media and incubated at 37°C and 5% CO2. Cell media were supplemented with 0.1 mM non-essential amino acids, 1.0 mM sodium pyruvate, 10% fetal bovine serum (FBS) (Sigma, Germany), 100°U ml^−1 penicillin, and […] streptomycin (Invitrogen, Sweden). U87 cell dishes were treated with 0.1% gelatin solution prior to addition of cells and media. The percentage of the fluorescent cells after peptide treatment was assessed using flow cytometry. For flow cytometry, 10,000 cells were seeded on a 96-well plate 1 day prior to the experiment. On the experiment day, the cell media was changed to 90 µl of fresh serum free media followed by the addition of 10 µl of the fluorescently labelled peptide solution. The peptide’s final concentration on the cells was 10 µM. The cells were incubated with the peptides for 2 h, following washes with PBS buffer. 0.25% Trypsin-EDTA was added to detach the cells from the plate and 200 µl of PBS mixed with 1% FBS was added. Shortly before the analysis, 50 µl of 0.4% trypan blue was added to quench the fluorescence outside the cells. The fluorescence detected from the untreated cells was used to set the signal threshold. The results are shown as the percentage of the fluorescent positive cells.

CHO cells = details: serum free media, 8 and 32 µM, average of three independent wells
Method: as §1

U87 cells [4] = test: Total DNA from cell lysate (PicoGreen dsDNA assay); type: cell-based, human; details: 5 µM peptide, 48 h, normalized to untreated cells, average of three wells
Method: Total DNA was measured from U87 cells 48 h after the addition of the peptide solutions. After the incubation, the cells were washed with PBS and lysed as described above. From the cell lysate, DNA was quantified with Quant-iT™ PicoGreen™ dsDNA Assay Kit. The results are shown as the average of measurements from three wells and normalized to untreated cells.

[5] = Figure 3 24 h, peptide added 0.5 µM
[6] = Figure 3 24 h, peptide added 2 µM
[7] = Figure 3 24 h, peptide added 8 µM
[8] = Figure 3 24 h, peptide added 32 µM
[9] = Figure 3 48 h, peptide added 0.5 µM
[10] = Figure 3 48 h, peptide added 2 µM
[11] = Figure 3 48 h, peptide added 8 µM
[12] = Figure 3 48 h, peptide added 32 µM

Sequence: GECTYAGRKRRRPLQK [AHRR8-24, predicted CPP from Aryl hydrocarbon receptor repressor, C-terminally amidated]
- Fluorescence signal from the peptide in confocal images (HeLa cells): fluorescence signal from the peptides can be seen in the cells
- 2-Way ANOVA, MTS assay, treatment group compared to untreated (U87 cells [1]; [5]): ns (P > 0.05 – ns)
- 2-Way ANOVA, MTS assay, treatment group compared to untreated (U87 cells [1]; [6]): * (p < 0.05 - *)
- 2-Way ANOVA, MTS assay, treatment group compared to untreated (U87 cells [1]; [7]): * (p < 0.05 - *)
- 2-Way ANOVA, MTS assay, treatment group compared to untreated (U87 cells [1]; [8]): ** (p < 0.01 - **)
- Proliferation in MTS assay compared to the CPP Tat treated group (U87 cells [1]; U87 cells, 0.5, 2, and 8 µM, 48 h): decrease in the proliferation
- Viability in MTS assay (U87 cells [1]; U87 cells, serum free media, after 48 h): decreased viability
- Fluorescence signal from the cell lysate (internalization) (U87, PC3, and HeLa cells [2]): highest fluorescence intensities
- Percentage of the fluorescent positive cells (U87, PC3, and HeLa cells [3]): more than 10%

Sequence: GRKKRRQRRRPPQ [Tat48-60, reference compound]
- Fluorescence signal from the peptide in confocal images (HeLa cells): fluorescence signal from the peptides can be seen in the cells
- Entry into cells in confocal images (HeLa cells): able to enter into almost all the cells
- 2-Way ANOVA, MTS assay, treatment group compared to untreated (U87 cells [1]; [5]): ns (P > 0.05 – ns)
- 2-Way ANOVA, MTS assay, treatment group compared to untreated (U87 cells [1]; [6]): ns (P > 0.05 – ns)
- 2-Way ANOVA, MTS assay, treatment group compared to untreated (U87 cells [1]; [7]): ns (P > 0.05 – ns)
- 2-Way ANOVA, MTS assay, treatment group compared to untreated (U87 cells [1]; [8]): * (p < 0.05 - *)
- 2-Way ANOVA, MTS assay, treatment group compared to untreated (U87 cells [1]; [9]): ns (P > 0.05 – ns)
- 2-Way ANOVA, MTS assay, treatment group compared to untreated (U87 cells [1]; [10]): ns (P > 0.05 – ns)
- 2-Way ANOVA, MTS assay, treatment group compared to untreated (U87 cells [1]; [11]): * (p < 0.05 - *)
- 2-Way ANOVA, MTS assay, treatment group compared to untreated (U87 cells [1]; [12]): *** (p < 0.001 - ***)
- Toxicity in MTS assay (U87 cells [1]; U87 cells, serum free media, 0-32 µM, after 24 or 48 h): did not show a considerable amount of toxicity

Sequence: NTKRRLEGAKKA [CCNL2_354-365, predicted CPP from Cyclin L2, C-terminally amidated]
- Fluorescent signal in flow cytometry (detectable or not) (U87, PC3, and HeLa cells [3]): all the peptides except the CCNL2, ING4, and FBXO32 derived peptides had a detectable signal

Sequence: PDDIKPRRIRKPRY [CASC3_251-264, predicted CPP from CASC3, C-terminally amidated]
- Fluorescence signal from the peptide in confocal images (HeLa cells): fluorescence signal from the peptides can be seen in the cells; also recorded: strongest and well dispersed signal
- Entry into cells in confocal images (HeLa cells): able to enter into almost all the cells
- Cell proliferation in MTS assay (CHO cells): proliferation decreased
- 2-Way ANOVA, MTS assay, treatment group compared to untreated (U87 cells [1]; [5]): ** (p < 0.01 - **)
- 2-Way ANOVA, MTS assay, treatment group compared to untreated (U87 cells [1]; [6]): ** (p < 0.01 - **)
- 2-Way ANOVA, MTS assay, treatment group compared to untreated (U87 cells [1]; [7]): *** (p < 0.001 - ***)
- 2-Way ANOVA, MTS assay, treatment group compared to untreated (U87 cells [1]; [8]): *** (p < 0.001 - ***)
- 2-Way ANOVA, MTS assay, treatment group compared to untreated (U87 cells [1]; [9]): * (p < 0.05 - *)
- 2-Way ANOVA, MTS assay, treatment group compared to untreated (U87 cells [1]; [10]): * (p < 0.05 - *)
- 2-Way ANOVA, MTS assay, treatment group compared to untreated (U87 cells [1]; [11]): * (p < 0.05 - *)
- 2-Way ANOVA, MTS assay, treatment group compared to untreated (U87 cells [1]; [12]): *** (p < 0.001 - ***)
- Proliferation in MTS assay compared to the CPP Tat treated group (U87 cells [1]; U87 cells, 0.5 µM, 24 h): decrease in the proliferation
- Cell proliferation in MTS assay (U87 cells [1]; U87 cells, serum free media, 8 and 32 µM): proliferation decreased
- Fluorescence signal from the cell lysate (internalization) (U87, PC3, and HeLa cells [2]): highest fluorescence intensities
- Percentage of the fluorescent positive cells (U87, PC3, and HeLa cells [3]): more than 10%

Sequence: RKRRESASSSSSVKKAKKP [DMAP1_459-467, predicted CPP from DNA methyltransferase 1-associated protein 1, C-terminally amidated]
- Fluorescence signal from the cell lysate (internalization) (U87, PC3, and HeLa cells [2]): above control

Sequence: TQKEKKAARARSK [ING4_134-145]
- Fluorescent signal in flow cytometry (detectable or not) (U87, PC3, and HeLa cells [3]): all the peptides except the CCNL2, ING4, and FBXO32 derived peptides had a detectable signal

Sequence: VAAKKRKKDML [FBXO32_59-69, predicted CPP from F-box only protein 32, C-terminally amidated]
- Fluorescent signal in flow cytometry (detectable or not) (U87, PC3, and HeLa cells [3]): all the peptides except the CCNL2, ING4, and FBXO32 derived peptides had a detectable signal

Sequence: VLERAKRRAV [AKIP1_27-37]
- Fluorescence signal from the peptide in confocal images (HeLa cells): fluorescence signal from the peptides can be seen in the cells
- 2-Way ANOVA, MTS assay, treatment group compared to untreated (U87 cells [1]; [5]): ns (P > 0.05 – ns)
- 2-Way ANOVA, MTS assay, treatment group compared to untreated (U87 cells [1]; [6]): * (p < 0.05 - *)
- 2-Way ANOVA, MTS assay, treatment group compared to untreated (U87 cells [1]; [7]): * (p < 0.05 - *)
- 2-Way ANOVA, MTS assay, treatment group compared to untreated (U87 cells [1]; [8]): * (p < 0.05 - *)
- 2-Way ANOVA, MTS assay, treatment group compared to untreated (U87 cells [1]; [9]): ns (P > 0.05 – ns)
- 2-Way ANOVA, MTS assay, treatment group compared to untreated (U87 cells [1]; [10]): * (p < 0.05 - *)
- 2-Way ANOVA, MTS assay, treatment group compared to untreated (U87 cells [1]; [11]): * (p < 0.05 - *)
- 2-Way ANOVA, MTS assay, treatment group compared to untreated (U87 cells [1]; [12]): ** (p < 0.01 - **)
- Fluorescence signal from the cell lysate (internalization) (U87, PC3, and HeLa cells [2]): highest fluorescence intensities
- Percentage of the fluorescent positive cells (U87, PC3, and HeLa cells [3]): more than 10%
- Amount of total DNA (U87 cells [4]): decreased amount of total DNA

Source: publication PMC8421526, “Cell-Penetrating Peptides Predicted From CASC3, AKIP1, and AHRR Proteins” (Frontiers in Pharmacology, 2021)
